Experimental data from ChEMBL document CHEMBL1140624, “Improved biochemical strategies for targeted delivery of taxoids” (Bioorg Med Chem, 2007).
Converted amounts (≈) assume the structure as drawn. Each block holds one compound with its values, some of them ahead of it. The source made the active and inactive calls. The rule behind the calls is not given here.

Columns and labels:
[1] = Half life in presence of 50 ug/mL beta-glucuronidase assessed as taxol release; assay type: ADME
MCF7 [2] = assay: Cytotoxicity against ERalpha positive human MCF7 cells; assay type: functional, cell-based; conditions: for EC50: read-out: ED50 (the source's name)
HT-29 = assay: Cytotoxicity against human HT29 cells; assay type: functional, cell-based
[3] = Half life at pH 7; assay type: ADME; conditions: buffer
[4] = Half life at pH 5; assay type: ADME; conditions: buffer
[5] = Aqueous solubility of the compound; assay type: physicochemical; conditions: aqueous solution
[6] = Half life in PBS buffer assessed as taxol circulation time at pH 7; assay type: ADME
MCF7 [7] = assay: Cytotoxicity against human MCF7 cells; assay type: functional, cell-based
EVSA-T = assay: Cytotoxicity against human EVSA-T cells; assay type: functional, cell-based
[8] = Half life in DTT buffer assessed as taxol release; assay type: ADME
L2987 [9] = assay: Cytotoxicity against human L2987 cells; assay type: functional, cell-based
L2987 [10] = assay: Cytotoxicity against human L2987 cells in presence of DTT; assay type: functional, cell-based
Mus musculus [11] = assay: Reduction of body weight in human L2987 xenografted athymic mouse at 125 mg/kg; assay type: functional; parameters: scale not given: the % may be the effect or the level left
[12] = Half life in presence of 30 ug/mL beta-glucuronidase assessed as taxol release at 30 ug/mL; assay type: ADME
LoVo [13] = assay: Cytotoxicity against human LoVo cells in presence of beta-glucuronidase; assay type: functional, cell-based
LoVo [14] = assay: Ratio of IC50 of drug for human LoVo cells to IC50 of taxotere for human LoVo cells; assay type: functional
Mus musculus [15] = species on record: Mus musculus; assay: Survival of p388 tumor bearing mouse after 30 days; assay type: functional, organism-based
MDA-MB-231 = assay: Cytotoxicity against ERalpha negative human MDA-MB-231 cells; assay type: functional, cell-based
PC-3 = assay: Cytotoxicity against ERbeta positive human PC3 cells; assay type: functional, cell-based
A2780 = assay: Cytotoxicity against ERbeta negative human A2780 cells; assay type: functional, cell-based
OVCAR-3 [16] = assay: Cytotoxicity against human OVCAR-3 cells; assay type: functional, cell-based
[17] = Cytotoxicity against human IGROV cells; assay type: functional, cell-based
OVCAR-3 [18] = assay: Cytotoxicity against human OVCAR-3 cells in presence of beta-glucuronidase; assay type: functional, cell-based
[19] = test system: M19 melanoma cell line (human); assay: Cytotoxicity against human M19 melanoma cells
MCF-7 (Homo sapiens) = assay: Ratio of IC50 for ERalpha positive human MCF-7 cells to IC50 for ERalpha negative human MDA-MB-231 cells
Mus musculus [20] = species on record: Mus musculus; assay: Toxicity assessed as reduction of body weight in mouse; assay type: organism-based; conditions: in vivo

Compound: CC(=O)O[C@H]1C(=O)[C@@]2(C)[C@H]([C@H](OC(=O)c3ccccc3)[C@]3(O)C[C@H](OC(=O)[C@H](OC(=O)C(C)(C)CCSS[C@@H]4C[C@H](CO)[C@@H](O)[C@H](O)[C@H]4O)[C@@H](NC(=O)c4ccccc4)c4ccccc4)C(C)=C1C3(C)C)[C@]1(OC(C)=O)CO[C@@H]1C[C@@H]2O
t1/2 [8]: 12 min
IC50 (L2987 [9]): 5.7 µM
IC50 (L2987 [10]): 0.2 µM

Compound: CC(=O)O[C@H]1C(=O)[C@@]2(C)[C@H]([C@H](OC(=O)c3ccccc3)[C@]3(O)C[C@H](OC(=O)[C@H](OC(=O)C(C)(C)CCSSC[C@H](C)C(=O)N4CCC[C@@H]4C(=O)O)[C@@H](NC(=O)c4ccccc4)c4ccccc4)C(C)=C1C3(C)C)[C@]1(OC(C)=O)CO[C@@H]1C[C@@H]2O
Activity (Mus musculus [11]): 10%
t1/2 [8]: 25 min

Compound: CC(=O)O[C@H]1C(=O)[C@@]2(C)[C@H]([C@H](OC(=O)c3ccccc3)[C@]3(O)C[C@H](OC(=O)[C@H](OC(=O)N(C)CCN(C)C(=O)OCc4ccc(O[C@@H]5O[C@H](C(=O)O)[C@@H](O)[C@H](O)[C@H]5O)c([N+](=O)[O-])c4)[C@@H](NC(=O)OC(C)(C)C)c4ccccc4)C(C)=C1C3(C)C)[C@]1(OC(C)=O)CO[C@@H]1C[C@@H]2O
t1/2 [12]: 10 min
Activity (LoVo [13]): inactive
Ratio IC50 (LoVo [14]): 337

Compound: CC(=O)O[C@H]1C(=O)[C@@]2(C)[C@H]([C@H](OC(=O)c3ccccc3)[C@]3(O)C[C@H](OC(=O)[C@H](O)[C@@H](NC(=O)c4ccccc4)c4ccccc4)C(C)=C1C3(C)C)[C@]1(OC(C)=O)CO[C@@H]1C[C@@H]2O [PACLITAXEL]
Activity (Mus musculus [15]): Toxic
IC50 (MDA-MB-231): 0.0045 µM
EC50 (MCF7 [2]): 50 ng/mL (≈ 0.0586 µM)
solubility [5]: 0.01 mg/mL (≈ 11.7 µM)
IC50 (PC-3): 0.077 µM
IC50 (A2780): 0.025 µM
IC50 (OVCAR-3 [16]): 0.0002 µM
IC50 [17]: 10 ng/mL (≈ 0.0117 µM)
Activity (OVCAR-3 [18]): inactive
IC50 (LoVo [13]): 0.09 µM
IC50 (HT-29): 30 ng/mL (≈ 0.0351 µM)
IC50 [19]: < 3 ng/mL

Compound: CC(=O)O[C@H]1C(=O)[C@@]2(C)[C@H]([C@H](OC(=O)c3ccccc3)[C@]3(O)C[C@H](OC(=O)[C@@H](OC(=O)CCC(=O)O[C@@H]4C[C@]5(C)[C@@H](O)CC[C@H]5[C@@H]5CCc6cc(O)ccc6[C@H]54)[C@@H](NC(=O)c4ccccc4)c4ccccc4)C(C)=C1C3(C)C)[C@]1(OC(C)=O)CO[C@@H]1C[C@@H]2O
IC50 (MDA-MB-231): 0.304 µM
IC50 (MCF7 [2]): 0.103 µM
IC50 (PC-3): 0.068 µM
IC50 (A2780): 1.9 µM
Ratio IC50 (MCF-7 (Homo sapiens)): 3

Compound: CC(=O)O[C@H]1C(=O)[C@@]2(C)[C@H]([C@H](OC(=O)c3ccccc3)[C@]3(O)C[C@H](OC(=O)[C@H](OC(=O)CN(C)CC(=O)NCCOCCOCCOCCNC(=O)CCC(NC(=O)c4ccc(NCc5cnc6nc(N)[nH]c(=O)c6n5)cc4)C(=O)O)[C@@H](NC(=O)c4ccccc4)c4ccccc4)C(C)=C1C3(C)C)[C@]1(OC(C)=O)CO[C@@H]1C[C@@H]2O (stereo not given in full)
Activity (Mus musculus [20]): Non-toxic

Now from value to compound, other results behind:

t1/2 [1]: 13 min
Compound: CC(=O)O[C@H]1C(=O)[C@@]2(C)[C@H]([C@H](OC(=O)c3ccccc3)[C@]3(O)C[C@H](OC(=O)[C@H](OC(=O)N(C)CCN(C)C(=O)OCc4ccc(O)c(N)c4)[C@@H](NC(=O)c4ccccc4)c4ccccc4)C(C)=C1C3(C)C)[C@]1(OC(C)=O)CO[C@@H]1C[C@@H]2O

half-life [3]: 40 h
half-life [4]: > 12.5 days
Compound: CC(=O)O[C@H]1C(=O)[C@@]2(C)[C@H]([C@H](OC(=O)c3ccccc3)[C@]3(O)C[C@H](OC(=O)[C@H](OC(=O)COCC(=O)NCCOCCOCCOCCNC(=O)CCC(NC(=O)c4ccc(NCc5cnc6nc(N)[nH]c(=O)c6n5)cc4)C(=O)O)[C@@H](NC(=O)c4ccccc4)c4ccccc4)C(C)=C1C3(C)C)[C@]1(OC(C)=O)CO[C@@H]1C[C@@H]2O (stereo not given in full)
EC50 (MCF7 [2]): 3.3 ng/mL (≈ 0.00211 µM)
EC50 (HT-29; read-out: ED50 (the source's name)): 2.9 ng/mL (≈ 0.00185 µM)

solubility [5]: 0.2 mg/mL (≈ 206 µM)
t1/2 [6]: > 1440 min
Compound: CC(=O)O[C@H]1C(=O)[C@@]2(C)[C@H]([C@H](OC(=O)c3ccccc3)[C@]3(O)C[C@H](OC(=O)[C@H](OC(=O)C[C@H](O)C(=O)O)[C@@H](NC(=O)c4ccccc4)c4ccccc4)C(C)=C1C3(C)C)[C@]1(OC(C)=O)CO[C@@H]1C[C@@H]2O
IC50 (MCF7 [7]): < 3 ng/mL
IC50 (EVSA-T): < 3 ng/mL
